Like-named read-outs stand apart in the source and are kept apart here.
How the values were obtained:
[1] = target: T1, BRM (Homo sapiens, UniProt P51531); experiment: ATPase catalytic activity of BRM, ADP-Glo in vitro biochemical assay; details: for IC50: 30 nM BRM, 400 μM ATP; for Ratio* (BRG1 IC50 (μM) divided by BRM IC50 (μM)): selectivity ratio BRG1 IC50 / BRM IC50
T1 construct: made in house; host or cells: High Five insect cells
Method in brief: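 Recombinant BRM (30 nM) hydrolysed 400 μM ATP with 20 nM salmon sperm DNA in pH 8 Tris buffer containing 20 mM MgCl2, 50 mM NaCl, 0.1% Tween-20 and 1 mM DTT, 1 h at room temperature. ADP formed was quantified by ADP-Glo luminescence.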

[2] = target: T2, BRG-1 (Homo sapiens, UniProt P51532); experiment: ATPase catalytic activity of BRG-1, ADP-Glo in vitro biochemical assay; details: 30 nM BRG-1, 400 μM ATP, read-out: BRG1 IC50
T2 construct: made in house; host or cells: High Five insect cells
T2 sequence (P51532 whole entry): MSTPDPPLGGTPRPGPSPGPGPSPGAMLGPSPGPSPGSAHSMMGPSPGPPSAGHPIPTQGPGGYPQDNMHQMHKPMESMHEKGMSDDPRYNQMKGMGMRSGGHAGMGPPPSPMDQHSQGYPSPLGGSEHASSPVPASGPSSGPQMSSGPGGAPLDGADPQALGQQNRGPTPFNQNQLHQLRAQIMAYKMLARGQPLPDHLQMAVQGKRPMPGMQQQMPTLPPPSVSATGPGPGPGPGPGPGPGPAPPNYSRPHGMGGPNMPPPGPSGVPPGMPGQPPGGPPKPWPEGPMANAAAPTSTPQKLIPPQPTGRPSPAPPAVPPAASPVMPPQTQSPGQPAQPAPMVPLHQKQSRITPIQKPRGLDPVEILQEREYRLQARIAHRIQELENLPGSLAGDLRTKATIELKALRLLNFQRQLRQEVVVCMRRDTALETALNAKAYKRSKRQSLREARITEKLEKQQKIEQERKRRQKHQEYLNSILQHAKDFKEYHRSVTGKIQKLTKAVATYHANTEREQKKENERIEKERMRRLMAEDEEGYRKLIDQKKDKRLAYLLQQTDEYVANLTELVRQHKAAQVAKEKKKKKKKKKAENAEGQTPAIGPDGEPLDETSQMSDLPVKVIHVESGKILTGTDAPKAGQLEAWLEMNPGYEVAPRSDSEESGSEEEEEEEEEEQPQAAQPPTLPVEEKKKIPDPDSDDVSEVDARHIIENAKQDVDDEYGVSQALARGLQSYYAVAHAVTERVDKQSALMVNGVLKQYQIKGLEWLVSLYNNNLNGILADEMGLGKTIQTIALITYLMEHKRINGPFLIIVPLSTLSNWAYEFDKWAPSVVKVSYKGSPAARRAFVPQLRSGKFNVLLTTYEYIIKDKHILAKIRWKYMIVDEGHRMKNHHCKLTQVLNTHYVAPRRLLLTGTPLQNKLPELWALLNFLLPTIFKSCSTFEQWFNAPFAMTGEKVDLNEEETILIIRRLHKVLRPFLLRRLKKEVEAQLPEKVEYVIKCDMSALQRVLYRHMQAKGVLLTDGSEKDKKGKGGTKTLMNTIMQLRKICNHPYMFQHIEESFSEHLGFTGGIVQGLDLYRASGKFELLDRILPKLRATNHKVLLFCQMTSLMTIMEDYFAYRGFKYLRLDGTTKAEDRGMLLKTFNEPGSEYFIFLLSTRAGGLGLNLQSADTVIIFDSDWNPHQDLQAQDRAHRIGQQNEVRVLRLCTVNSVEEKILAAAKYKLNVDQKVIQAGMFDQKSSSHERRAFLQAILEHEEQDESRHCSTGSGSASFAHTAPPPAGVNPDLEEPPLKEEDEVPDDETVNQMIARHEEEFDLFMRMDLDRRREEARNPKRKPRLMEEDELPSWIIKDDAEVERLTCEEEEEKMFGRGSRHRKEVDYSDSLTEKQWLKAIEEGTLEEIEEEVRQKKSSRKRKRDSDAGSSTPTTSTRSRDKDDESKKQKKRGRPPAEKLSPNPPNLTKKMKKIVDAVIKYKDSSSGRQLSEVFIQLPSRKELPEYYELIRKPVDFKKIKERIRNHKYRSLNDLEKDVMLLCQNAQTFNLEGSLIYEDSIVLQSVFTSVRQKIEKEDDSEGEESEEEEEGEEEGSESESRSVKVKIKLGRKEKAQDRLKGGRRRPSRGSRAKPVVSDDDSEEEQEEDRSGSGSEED
Method in brief: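 Signal reflects ADP produced by the enzyme, quantified as luminescence after unused ATP is cleared and ADP is reconverted to ATP for the luciferase reaction; both steps run at room temperature, 40 and 60 min respectively.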

[3] = ATPase catalytic activity, ADP-Glo

T1 sequence (P51531 whole entry): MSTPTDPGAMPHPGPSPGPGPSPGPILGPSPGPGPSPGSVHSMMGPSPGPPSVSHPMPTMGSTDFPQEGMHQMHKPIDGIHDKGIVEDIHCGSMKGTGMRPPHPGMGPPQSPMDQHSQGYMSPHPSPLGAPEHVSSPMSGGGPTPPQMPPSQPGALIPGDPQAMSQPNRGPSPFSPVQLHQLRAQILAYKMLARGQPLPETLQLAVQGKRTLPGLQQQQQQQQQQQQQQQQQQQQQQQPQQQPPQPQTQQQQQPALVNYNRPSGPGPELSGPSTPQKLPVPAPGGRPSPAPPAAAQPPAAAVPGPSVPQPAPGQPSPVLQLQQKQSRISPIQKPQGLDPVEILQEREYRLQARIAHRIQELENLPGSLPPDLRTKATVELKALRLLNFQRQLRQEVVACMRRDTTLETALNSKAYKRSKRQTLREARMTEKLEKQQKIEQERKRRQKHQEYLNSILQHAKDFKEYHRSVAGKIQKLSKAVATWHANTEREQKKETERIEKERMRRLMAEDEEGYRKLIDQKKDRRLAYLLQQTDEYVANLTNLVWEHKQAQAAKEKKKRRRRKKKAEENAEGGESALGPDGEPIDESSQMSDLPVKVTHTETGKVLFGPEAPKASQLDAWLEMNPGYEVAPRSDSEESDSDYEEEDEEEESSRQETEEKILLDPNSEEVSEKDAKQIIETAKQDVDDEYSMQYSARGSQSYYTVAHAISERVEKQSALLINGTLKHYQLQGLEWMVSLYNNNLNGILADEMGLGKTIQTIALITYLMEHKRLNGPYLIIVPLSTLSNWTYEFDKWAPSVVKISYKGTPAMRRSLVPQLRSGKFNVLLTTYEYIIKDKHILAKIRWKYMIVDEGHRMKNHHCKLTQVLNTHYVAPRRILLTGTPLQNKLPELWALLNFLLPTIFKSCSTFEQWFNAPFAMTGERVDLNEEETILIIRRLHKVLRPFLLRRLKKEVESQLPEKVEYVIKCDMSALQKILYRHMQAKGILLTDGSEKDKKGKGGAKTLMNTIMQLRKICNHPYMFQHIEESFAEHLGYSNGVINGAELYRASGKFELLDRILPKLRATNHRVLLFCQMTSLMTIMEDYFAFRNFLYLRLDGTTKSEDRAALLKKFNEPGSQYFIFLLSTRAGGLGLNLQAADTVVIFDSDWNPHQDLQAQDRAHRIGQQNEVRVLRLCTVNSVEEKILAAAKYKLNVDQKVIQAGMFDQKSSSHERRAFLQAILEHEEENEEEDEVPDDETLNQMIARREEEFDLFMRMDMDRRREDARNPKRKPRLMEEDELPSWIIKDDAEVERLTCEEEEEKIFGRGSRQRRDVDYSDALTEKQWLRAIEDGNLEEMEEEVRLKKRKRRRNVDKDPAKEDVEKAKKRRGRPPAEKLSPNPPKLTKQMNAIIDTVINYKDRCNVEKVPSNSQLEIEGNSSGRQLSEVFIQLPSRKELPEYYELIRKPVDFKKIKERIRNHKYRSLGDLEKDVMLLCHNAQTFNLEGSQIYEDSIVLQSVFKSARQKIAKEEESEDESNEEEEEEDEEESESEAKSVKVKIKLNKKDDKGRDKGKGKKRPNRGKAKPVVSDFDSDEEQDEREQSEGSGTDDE

| SMILES | IC50 [1, 3] [µM] | Ratio* ([1]; ratio of BRG1 IC50 to BRM IC50) | IC50 [2, 3] [µM] | IC50 ([1]; ADP-Glo ATPase assay) [µM] | Ratio* ([1]; ratio BRG1 IC50 / BRM IC50) | IC50 ([2]; ADP-Glo ATPase assay) [µM] | Ratio* (BRG1 IC50 (μM) divided by BRM IC50 (μM)) [1] |
| --- | --- | --- | --- | --- | --- | --- | --- |
| O=C(NCc1cc2nc(N3CCCC4CCCC43)ccc2cn1)c1ccc2c(c1)S(=O)(=O)CCOC2 (stereo not drawn) [Compound 652] | 0.443 | 7.21 | 3.19 | – | – | – | – |
| CCc1cnc2c(c1)OCCN2c1ccc2cnc(CNC(=O)c3ccc4c(c3)S(=O)(=O)CCOC4)cc2n1 [Compound 665] | 0.0064 | 13.54 | 0.0868 | – | – | – | – |
| CO[C@@H]1CN(c2cccc(-c3ccc4cnc(CNC(=O)c5ccc6c(c5)S(=O)(=O)CCOC6)cc4n3)n2)C[C@@H]1F [Compound 333] | 0.0171 | 13.29 | 0.227 | – | – | – | – |
| O=C(NCc1cc2nc(N3CCCc4ccc(OCC5(F)COC5)cc43)ccc2cn1)c1ccc2c(c1)S(=O)(=O)CCOC2 [Compound 745] | – | – | – | 0.0045 | 6.27 | 0.0279 | – |
| CC1CS(=O)(=O)c2cc(C(=O)NCc3cc4nc(-c5cccc(N6C[C@@H](C)O[C@@H](C)C6)n5)ccc4cn3)ccc2CO1 (stereo partly drawn) [Compound 48] | – | – | – | 0.294 | – | 1.84 | 6.26 |
| C[C@@H]1C[C@@H](N(C)c2cccc(-c3ccc4cnc(CNC(=O)c5ccc6c(c5)S(=O)(=O)CCOC6)cc4n3)n2)C[C@H](C)O1 [Compound 334] | 0.0212 | 17.82 | 0.377 | – | – | – | – |
| CC1CCN(c2ccc3cnc(CNC(=O)c4ccc5c(c4)S(=O)(=O)CCOC5)cc3n2)c2ncccc21 (stereo not drawn) [Compound 504] | 0.0286 | 7.45 | 0.213 | – | – | – | – |
| C[C@@H]1CN(c2cccc(-c3ccc4cnc(CNC(=O)c5ccc6c(c5)S(=O)(=O)CCOCC6)cc4n3)n2)C[C@H](C)O1 [Compound 627] | 0.0039 | 1.28 | 0.005 | – | – | – | – |
| CCOCc1ccc2c(n1)N(c1ccc3cnc(CNC(=O)c4ccc5c(c4)S(=O)(=O)CCOC5)cc3n1)CCC2 [Compound 564] | 0.0336 | 26.25 | 0.881 | – | – | – | – |
| C[C@@H]1CN(c2cccc(-c3ccc4cnc([C@H](C)NC(=O)c5ccc6c(c5)S(=O)(=O)CCOC6)cc4n3)n2)C[C@H](C)O1 [Compound 122] | – | – | – | 0.0103 | – | 0.0677 | 6.56 |
| C[C@@]1(F)CCCN(c2cccc(-c3ccc4cnc(CNC(=O)c5ccc6c(c5)S(=O)(=O)CCOC6)cc4n3)n2)C1 [Compound 318] | 0.0094 | 8.53 | 0.0804 | – | – | – | – |
| CO[C@@H]1C[C@H]1N(C)c1cccc(-c2ccc3cnc(CNC(=O)c4ccc5c(c4)S(=O)(=O)CCOC5)cc3n2)n1 [Compound 480] | 0.0051 | 11.83 | 0.0602 | – | – | – | – |
| CN(C)c1cnc2c(c1)CCCN2c1ccc2cnc(CNC(=O)c3ccc4c(c3)S(=O)(=O)CCOC4)cc2n1 [Compound 441] | 0.0117 | 8.52 | 0.0995 | – | – | – | – |
| CC(F)(F)c1ccc2c(c1)N(c1ccc3cnc(CNC(=O)c4ccc5c(c4)S(=O)(=O)CCOC5)cc3n1)CCO2 [Compound 682] | 0.0103 | 15.88 | 0.164 | – | – | – | – |
| C[C@@H]1C[C@H]1c1ccc2c(n1)N(c1ccc3cnc(CNC(=O)c4ccc5c(c4)S(=O)(=O)CCOC5)cc3n1)CCO2 [Compound 809] | – | – | – | 0.0069 | 39.28 | 0.269 | – |
| O=C(NCc1cc2nc(-c3cccc(OCC(F)F)c3)ccc2cn1)c1ccc2c(c1)S(=O)(=O)CCOC2 [Compound 103] | – | – | – | 0.253 | – | 2.77 | 10.96 |
| CCOc1ccc2c(n1)N(c1ccc3cnc(CNC(=O)c4ccc5c(c4)S(=O)(=O)CCOC5)cc3n1)CCC2 [Compound 576] | 0.0889 | 18.86 | 1.68 | – | – | – | – |
| COCCOc1cccc(-c2ccc3cnc(CNC(=O)c4ccc5c(c4)S(=O)(=O)CCOC5)cc3n2)c1 [Compound 135] | – | – | – | 0.112 | – | 1.06 | 9.48 |
| C[C@H]1COCc2ccc(C(=O)NCc3cc4nc(-c5cccc(C6CC6)n5)ccc4nn3)cc2S1(=O)=O [Compound 423] | 0.0152 | 32.23 | 0.491 | – | – | – | – |

| SMILES | IC50 [1, 3] [µM] | Ratio* ([1]; ratio of BRG1 IC50 to BRM IC50) | IC50 [2, 3] [µM] | IC50 ([1]; ADP-Glo ATPase assay) [µM] | Ratio* ([1]; ratio BRG1 IC50 / BRM IC50) | IC50 ([2]; ADP-Glo ATPase assay) [µM] | Ratio* (BRG1 IC50 (μM) divided by BRM IC50 (μM)) [1] |
| --- | --- | --- | --- | --- | --- | --- | --- |
| Cc1cc2ccc(-c3ccc4cnc(CNC(=O)c5ccc6c(c5)S(=O)(=O)CCOC6)cc4n3)nc2n1C [Compound 85] | – | – | – | 0.0157 | – | 0.129 | 8.19 |
| C[C@@H]1CN(c2cccc(-c3ccc4cnc(CNC(=O)c5ccc(CC(C)(F)F)c(S(C)(=O)=O)c5)cc4n3)n2)C[C@H](C)O1 [Compound 474] | 0.23 | 20.44 | 4.69 | – | – | – | – |
| CO[C@@H]1CCN(c2cccc(-c3ccc4cnc(CNC(=O)c5ccc6c(c5)S(=O)(=O)CCOC6)cc4n3)n2)C[C@H]1C [Compound 353] | 0.0095 | 13.13 | 0.125 | – | – | – | – |
| Cc1cnc2c(c1)C1(CCN2c2ccc3cnc(CNC(=O)c4ccc5c(c4)S(=O)(=O)CCOC5)cc3n2)CC1 [Compound 734] | – | – | – | 0.0063 | 13.67 | 0.0862 | – |
| Cc1ccc2c(n1)CN(c1ccc3cnc(CNC(=O)c4ccc5c(c4)S(=O)(=O)CCOC5)cc3n1)CC2 [Compound 408] | 0.476 | 4.77 | 2.27 | – | – | – | – |
| CO[C@H](C)CN(C)c1cccc(-c2ccc3cnc(CNC(=O)c4ccc5c(c4)S(=O)(=O)CCOC5)cc3n2)n1 [Compound 55] | – | – | – | 0.0253 | – | 0.239 | 9.45 |
| COCCN(C)c1cccc(-c2ccc3cnc(CNC(=O)c4ccc(Cl)c(S(C)(=O)=O)c4)cc3n2)n1 [Compound 97] | – | – | – | 0.0203 | – | 0.324 | 15.97 |
| CN(C)c1ccc2c(n1)OCCN2c1ccc2cnc(CNC(=O)c3ccc4c(c3)S(=O)(=O)CCOC4)cc2n1 [Compound 845] | – | – | – | 0.0212 | 8.66 | 0.184 | – |
| O=C(NCc1cc2nc(N3CCCc4ncc(C5CC5)nc43)ccc2cn1)c1ccc2c(c1)S(=O)(=O)CCOC2 [Compound 785] | – | – | – | 0.0858 | 15.49 | 1.33 | – |
| O=C(NCc1cc2nc(N3CCC(F)(F)c4cccnc43)ccc2cn1)c1ccc2c(c1)S(=O)(=O)CCOC2 [Compound 767] | – | – | – | 0.0174 | 11.17 | 0.194 | – |
| Cn1cnc2c1CCCN2c1ccc2cnc(CNC(=O)c3ccc4c(c3)S(=O)(=O)CCOC4)cc2n1 [Compound 688] | 0.257 | 6.65 | 1.71 | – | – | – | – |
| COC[C@H](NC(=O)c1ccc2c(c1)S(=O)(=O)CCOC2)c1cc2nc(-c3cccc(C4CC4)n3)ccc2cn1 [Compound 507] | 0.387 | 6.28 | 2.43 | – | – | – | – |
| Cc1ccc(C(=O)NCc2cc3nc(-c4cccc(N5C[C@@H](C)O[C@@H](C)C5)n4)ccc3cn2)cc1S(C)(=O)=O [Compound 195] | – | – | – | 0.0037 | – | 0.0313 | 8.49 |
| O=C(NCc1cc2nc(N3CCOc4cc(Cl)cnc43)ccc2cn1)c1cc(F)c2c(c1)S(=O)(=O)CCOC2 [Compound 691] | 0.0095 | 16.64 | 0.159 | – | – | – | – |
| CC1COCc2ccc(C(=O)NCc3cc4nc(-c5cccc(N6CCC6)n5)ccc4cn3)cc2S1(=O)=O (single isomer, unassigned) [Compound 197] | – | – | – | 0.0193 | – | 0.244 | 12.64 |
| O=C(NCc1cc2nc(-c3cccc(N(C4CCOCC4)C4CC4)n3)ccc2cn1)c1ccc2c(c1)S(=O)(=O)CCOC2 [Compound 398] | 0.185 | 4.97 | 0.919 | – | – | – | – |
| CN1CCN(c2ccc3cnc(CNC(=O)c4ccc5c(c4)S(=O)(=O)CCOC5)cc3n2)c2ccccc21 [Compound 512] | 0.0287 | 7.58 | 0.217 | – | – | – | – |
| O=C(NCc1cc2nc(-c3cncc(C4CC4)n3)ccc2cn1)c1cc(Cl)c2c(c1)S(=O)(=O)CCOC2 [Compound 187] | – | – | – | 0.109 | – | 2.67 | 24.40 |
